{
  "source": "paper PMC9350911",
  "about": "“Protein–Calixarene Complexation: From Recognition to Assembly” (Accounts of Chemical Research, 2022)",
  "format_in_all_cases": "binding",
  "key": {"[1]": {"target": "Penicillium antifungal protein (PAF) (Penicillium chrysogenum, UniProt Q01701)", "sequence (Q01701 38-92 limits assumed)": "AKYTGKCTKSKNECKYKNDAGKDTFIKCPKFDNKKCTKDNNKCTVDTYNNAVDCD", "assay": "ITC; X-ray cocrystal structure; NMR"}, "[2]": {"target": "T1, cytochrome c (cyt c) (Saccharomyces cerevisiae, UniProt P00044)", "T1 construct": "gene CYC1", "T1 sequence (P00044 2-109)": "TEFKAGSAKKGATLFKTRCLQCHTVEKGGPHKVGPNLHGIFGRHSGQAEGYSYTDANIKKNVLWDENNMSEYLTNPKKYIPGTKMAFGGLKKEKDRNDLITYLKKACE", "assay": "ITC; X-ray cocrystal structure; NMR; SECMALS"}, "[3]": {"target": "T1, cytochrome c (cyt c)", "assay": "ITC; X-ray cocrystal structure", "settings": "read-out: apparent dissociation constant; cited from earlier work"}, "[4]": {"target": "T1, cytochrome c (cyt c)", "assay": "ITC; X-ray cocrystal structure; NMR", "settings": "read-out: apparent dissociation constant; cited from earlier work"}},
  "data": [
    {"smiles": "O=S(=O)(O)c1cc2c(O)c(c1)Cc1cc(S(=O)(=O)O)cc(c1O)Cc1cc(S(=O)(=O)O)cc(c1O)Cc1cc(S(=O)(=O)O)cc(c1O)Cc1cc(S(=O)(=O)O)cc(c1O)Cc1cc(S(=O)(=O)O)cc(c1O)C2", "note": "[sulfonato-calix[6]arene]", "values": [
      {"measurement": "binding affinity", "setting": "[1]", "value": "Micromolar binding affinities were determined by ITC"}
    ]},
    {"smiles": "O=P(O)(O)c1cc2c(O)c(c1)Cc1cc(P(=O)(O)O)cc(c1O)Cc1cc(P(=O)(O)O)cc(c1O)Cc1cc(P(=O)(O)O)cc(c1O)Cc1cc(P(=O)(O)O)cc(c1O)Cc1cc(P(=O)(O)O)cc(c1O)C2", "note": "[phosphonato-calix[6]arene]", "values": [
      {"measurement": "binding affinity", "setting": "[2]", "value": "the ITC data indicated a binding affinity in the low micromolar range"}
    ]},
    {"smiles": "O=S(=O)(O)c1cc2c(O)c(c1)Cc1cc(S(=O)(=O)O)cc(c1O)Cc1cc(S(=O)(=O)O)cc(c1O)Cc1cc(Br)cc(c1O)C2", "note": "[bromo-sulfonato-calix[4]arene]", "values": [
      {"measurement": "Kd", "setting": "[3]", "value": 20, "unit": "µM"}
    ]},
    {"smiles": "O=S(=O)(O)c1cc2c(O)c(c1)Cc1cc(S(=O)(=O)O)cc(c1O)Cc1cc(S(=O)(=O)O)cc(c1O)Cc1cc(S(=O)(=O)O)cc(c1O)C2", "note": "[sulfonato-calix[4]arene]", "values": [
      {"measurement": "binding affinity", "setting": "[1]", "value": "Micromolar binding affinities were determined by ITC"},
      {"measurement": "Kd", "setting": "[4]", "value": 30, "unit": "µM"}
    ]}
  ]
}
